Source: US10618944B2, “Tumor suppressor SALL1 as a therapeutic agent for treating cancer” (Saint Louis University, priority 2015, dated 2020)

How the values were obtained:
[1] = tested on: MCF-7; test: Senescence associated β-Galactosidase (SA-β-Gal) staining; type: cell-based, human; details: for SALL1-induced senescent cell populations with MAPK inhibitor: 10 μM for 5 days, SALL1-transfected cells
Protocol: (§1) Senescence associated β-Galactosidase (SA-β-Gal) activity in tumor cells was detected as previously described (30, 33). Briefly, tumor cell lines were transfected with or without plasmids and cultured for 3 or 5 days. Cells were washed in PBS (pH 7.2), fixed in 3% formaldehyde, and followed to incubate overnight at 37° C. with freshly prepared SA-β-Gal staining solution (1 mg/ml X-gal, 5 mM K3Fe[CN]6, 5 mM K4Fe[CN]6, 2 mM MgCl2 in PBS at pH 6.0). The stained cells were washed with H2O and examined with a microscope. For some experiments, SA-β-Gal^+ populations were determined in the transfected tumor cells in the presence of following various inhibitors or combined transfection with shRNAs: ATM inhibitor KU55933 (20 μM, Tocris Bioscience); mTOR inhibitor Rapmycin (5 μM, Sigma); MAPK inhibitors U0126 (10 μM), SB203580 (10 μM) and SP600125 (10 μM), or PI3 Kinase inhibitor Wortminnin (10 μM) (Calbiochemistry), or transfection with shRNAs against p38, ERK and mTOR, for 3 or 5 days. The treated tumor cells were then detected for SA-β-Gal expression.
(§2) The methods for design and construction of shRNA specific for ERK1, ERK2, P38a, JNK1 and mTOR or scrambled lenti-shRNAs, and generation of recombinant lentivirus carrying GFP and shRNA, have been described previously (Peng et al., 2005 and Peng et al., 2007). For virus transfection, concentrated lentiviral supernatant with a multiplicity of infection (MOI) of 5-10 in a total volume of 0.5 ml culture medium was added to the tumor cells growing in 24 well plates containing 8 μg/ml polybrene (Sigma), and then centrifuged at 1000×g for 1 hr at room temperature. Tumor cells were sorted into GFP^+ and GFP^− cells with a FACS ARIA sorter at 3 or 4 days post-transfection. The sorted cells (GFP^+ and GFP^−) were then transfected with or without pcDNA3.1-SALL-1, and induction of senescence was determined.

[2] = tested on: ATM-associated DNA damage response in E0771; test: DNA damage response markers by FACS; type: cell-based, murine; details: KU55933 20 μM
Protocol: (§3) The expression of DNA damage response markers on tumor cells were determined by FACS analysis after staining with anti-human specific antibodies conjugated with either PE or FITC. These human antibodies included: anti-phosphorylated H2Ax, anti-phosphorylated p53 bp, and anti-phosphorylated ATM, which were purchased from Cell Signaling Technology or BD Biosciences. All stained cells were analyzed on a FACSCalibur flow cytometer (BD Bioscience) and data analyzed with FlowJo software (Tree Star).

[3] = tested on: ATM-associated DNA damage response in MCF-7; test: DNA damage response markers by FACS; type: cell-based, human; details: KU55933 20 μM
Protocol: as §3

[4] = tested on: E0771; test: Senescence associated β-Galactosidase (SA-β-Gal) staining; type: cell-based, murine; details: for SALL1-induced senescent cell populations with MAPK inhibitor: 10 μM for 5 days, SALL1-transfected cells
Protocol: as §1, §2

[5] = pretreated 20 μM for 1 day, then SALL1 transfection, 3 days

SALL1-induced senescence induction with ATM inhibitor [1, 5] | SALL1-induced senescence induction with ATM inhibitor [4, 5] | SMILES | phosphorylation of ATM in SALL1-transfected tumor cells with inhibitor [2] | phosphorylation of ATM in SALL1-transfected tumor cells with inhibitor [3] | SALL1-induced senescent cell populations with MAPK inhibitor [1] | SALL1-induced senescent cell populations with MAPK inhibitor [4]
prevented the senescence induction | prevented the senescence induction | O=c1cc(-c2cccc3c2Sc2ccccc2S3)oc(N2CCOCC2)c1 [KU55933] | dramatically suppressed | dramatically suppressed | – | –
– | – | C[S+]([O-])c1ccc(-c2nc(-c3ccncc3)c(-c3ccc(F)cc3)[nH]2)cc1 (centres unmarked) [SB203580] | – | – | significantly reduced | significantly reduced
– | – | N#CC(=C(/N)Sc1ccccc1N)/C(C#N)=C(\N)Sc1ccccc1N [U0126] | – | – | significantly reduced | significantly reduced
